{
  "source": "ChEMBL document CHEMBL1152181",
  "about": "“Rational design of novel glycomimetics: inhibitors of concanavalin A” (Bioorg Med Chem Lett, 2008)",
  "data": [
    {"biological_target": "Concanavalin-A (Canavalia ensiformis) (UniProt P02866)", "sequence (P02866 whole entry)": "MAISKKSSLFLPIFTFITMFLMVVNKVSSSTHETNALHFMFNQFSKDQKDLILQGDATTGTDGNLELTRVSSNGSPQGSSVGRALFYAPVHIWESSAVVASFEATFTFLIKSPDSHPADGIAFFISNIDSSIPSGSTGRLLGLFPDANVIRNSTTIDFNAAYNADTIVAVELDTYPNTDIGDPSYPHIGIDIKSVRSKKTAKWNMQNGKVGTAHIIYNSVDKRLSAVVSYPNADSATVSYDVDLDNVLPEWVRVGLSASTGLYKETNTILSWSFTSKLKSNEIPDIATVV", "assay": "Inhibition of Canavalia ensiformis concanavalin A binding to yeast mannan at 11 mM by ELLA", "units": {"inhibition": "%"}, "values": [
      {"compound": "NS(=O)(=O)c1ccc(/N=N/c2cnc(O)c(O)c2)cc1", "inhibition": 49}
    ]},
    {"biological_target": "Concanavalin-A (Canavalia ensiformis, UniProt P02866)", "sequence (P02866 whole entry)": "as above", "assay": "Inhibition of Canavalia ensiformis concanavalin A binding to yeast mannan by ELLA", "units": {"IC50": "µM"}, "values": [
      {"compound": "Oc1cc(O)c2c(c1)OC(c1ccc(O)c(O)c1)C(O)C2c1c(O)cc(O)c2c1CC(c1ccc(O)c(O)c1)C(O)C2", "note": "(configuration not stated)", "IC50": 479},
      {"compound": "O=C(O)C1CCCCC1c1c2ccc(=O)c(O)c-2oc2c(O)c(O)ccc12", "note": "(configuration not stated)", "IC50": 29},
      {"compound": "CO[C@H]1O[C@H](CO)[C@@H](O)[C@H](O)[C@@H]1O", "IC50": 350},
      {"compound": "NS(=O)(=O)c1ccc(/N=N/c2nc3nc(O)nc(O)c3[nH]2)cc1", "IC50": 615},
      {"compound": "NNS(=O)(=O)c1cc(C(=O)O)cc(C(=O)O)c1", "IC50": 19},
      {"compound": "NS(=O)(=O)c1ccc(/N=N/c2cccnc2O)cc1", "IC50": 234}
    ]}
  ]
}
